According to article PMC7352059 (Biotechnology Reports, 2020):

Columns and labels:
Experiment in all cases: dopachrome formation, absorbance […] nm, non-linear regression
Settings in all cases: free enzyme; 0.05 M Na-phosphate pH 6.5; 1-30 mM L-DOPA
[1] = test system: tyrosinase from D. rotundata; assay type: biochemical, Dioscorea cayenensis subsp. rotundata
[2] = test system: tyrosinase from C. esculenta; assay type: biochemical, Colocasia esculenta
[3] = test system: tyrosinase from D. praehensilis; assay type: biochemical, Dioscorea praehensilis
tyrosinase from D. alata = assay type: biochemical, Dioscorea alata

N[C@@H](Cc1ccc(O)c(O)c1)C(=O)O [L-DOPA, 3,4-dihydroxyphenyl-L-alanine] gave a Km [1] of 6.8 ± 2.6 mM, a Km [2] of 23.7 ± 14 mM and a Km [3] of 9.6 ± 3.7 mM. The Km (tyrosinase from D. alata) was 20 ± 11 mM.
